Earlier results in article PMC3401522 (ACS Chemical Biology, 2011).

Tested on: JIP-JNK interaction sites

In the case of `O=c1[nH]nc(Sc2ncc([N+](=O)[O-])s2)n1-c1ccc2c(c1)OCCO2` [BI-78D3], the IC50 is listed as 500 nM.
